Laboratory results reported in article PMC12915204, “A Cold Stress‐Activated Endocrine Sentinel Chemical Hormone Promotes Insect Survival via Mitochondrial Adaptations Through the Adipokinetic Hormone Receptor” (Advanced Science, 2025).

Tests used:
[1] = tested on: T1, adipokinetic hormone receptor (AKHR); assay: Microscale thermophoresis with AKHR-GFP in S2 cell lysate; supported by calcium imaging in AKHR-expressing S2 cells ([…] asc-C9); format: binding, Monochamus alternatus
T1 construct: GFP-tagged AKHR in S2 cell lysate (AKHR-GFP fusion protein)

[2] = biological target: adipokinetic hormone receptor (AKHR) of Monochamus alternatus, overexpressed in Drosophila S2 cells (Monochamus alternatus)

Row | calcium mobilization (Fluo-4 imaging) in AKHR-expressing S2 cells, dose-response to AKH; no response with an empty vector [2] | Substance | Kd [1]
1 | – | asc-C9 | 272 µM
2 | 30 nM | M. alternatus AKH peptide (adipokinetic hormone) | –
